Laboratory results from patent publication US5593984A, “Cephalosporin derivatives” (Yuhan Corporation, priority 1992, dated 1997).
≈ marks a conversion by molar mass, not a printed value.

Legend:
Format in all cases: cell-based
M. morganii DY-1 = assay: MIC by agar dilution, M. morganii DY-1; settings: Morganella morganii, DY1, 17 h; M. morganii DY-1; agar dilution, Mueller-Hinton agar; read-out: Minimal Inhibitory Concentration (MIC)
Method: (§1) These MIC values were determined by agar dilution method: that is, two-fold dilutions of each of the test compounds were made and dispersed in a Mueller-Hinton agar medium; standard test strain which had the 10^6 CFU (Colony Forming Unit) per ml was inoculated on the medium with microplanter (Toyo, Japan), and incubated at 35°-37° C. for 17±1 hours. The structures of Ceftazidime (CAZ) and Cefotaxime (CTX) which are used as control compounds are as follows: [drawing 12]

Staph. aureus C-5216 = assay: MIC by agar dilution, Staph. aureus C-5216; settings: Staphylococcus aureus, C5216, 17 h, Mueller-Hinton agar, read-out: Minimal Inhibitory Concentration (MIC)
Method: as §1

P. vulgaris NCTC 8313 = assay: MIC by agar dilution, P. vulgaris NCTC 8313; settings: Proteus vulgaris, NCTC8313, 17 h; P. vulgaris NCTC 8313; agar dilution, Mueller-Hinton agar; read-out: Minimal Inhibitory Concentration (MIC)
Method: as §1

[1] = system: S. epidermidis ATCC 12228; assay: MIC by agar dilution, S. epidermidis ATCC 12228; settings: Staphylococcus epidermidis, ATCC12228, 17 h; S. epidermidis ATCC 12228; agar dilution, Mueller-Hinton agar; read-out: Minimal Inhibitory Concentration (MIC)
Method: as §1

E. coli NIHJ JC-2 = assay: MIC by agar dilution, E. coli NIHJ JC-2; settings: Escherichia coli, NIHJJC2, 17 h; E. coli NIHJ JC-2; agar dilution, Mueller-Hinton agar; read-out: Minimal Inhibitory Concentration (MIC)
Method: as §1

Staph. aureus ATCC 6538P = assay: MIC by agar dilution, Staph. aureus ATCC 6538P; settings: Staphylococcus aureus, ATCC6538P, 17 h; Staph. aureus ATCC 6538P; agar dilution, Mueller-Hinton agar; read-out: Minimal Inhibitory Concentration (MIC)
Method: as §1

[2] = system: Ps. aeruginosa NCTC 10490; assay: MIC by agar dilution, Ps. aeruginosa NCTC 10490; settings: Pseudomonas aeruginosa, NCTC10490, 17 h, Mueller-Hinton agar, read-out: Minimal Inhibitory Concentration (MIC)
Method: as §1

K. pneumoniae NCTC 9632 = assay: MIC by agar dilution, K. pneumoniae NCTC 9632; settings: Klebsiella pneumoniae, NCTC9632, 17 h; K. pneumoniae NCTC 9632; agar dilution, Mueller-Hinton agar; read-out: Minimal Inhibitory Concentration (MIC)
Method: as §1

Ps. aeruginosa DY-2 = assay: MIC by agar dilution, Ps. aeruginosa DY-2; settings: Pseudomonas aeruginosa, DY2, 17 h; Ps. aeruginosa DY-2; agar dilution, Mueller-Hinton agar; read-out: Minimal Inhibitory Concentration (MIC)
Method: as §1

[3] = system: Ps. aeruginosa ATCC 10145; assay: MIC by agar dilution, Ps. aeruginosa ATCC 10145; settings: Pseudomonas aeruginosa, ATCC10145, 17 h, Mueller-Hinton agar, read-out: Minimal Inhibitory Concentration (MIC)
Method: as §1

E. coli DY-1 = assay: MIC by agar dilution, E. coli DY-1; settings: Escherichia coli, DY1, 17 h; E. coli DY-1; agar dilution, Mueller-Hinton agar; read-out: Minimal Inhibitory Concentration (MIC)
Method: as §1

Prov. stuartii IFO 12930 = assay: MIC by agar dilution, Prov. stuartii IFO 12930; settings: Providencia stuartii, IFO12930, 17 h, Mueller-Hinton agar, read-out: Minimal Inhibitory Concentration (MIC)
Method: as §1

Ent. cloacae IFO 13535 = assay: MIC by agar dilution, Ent. cloacae IFO 13535; settings: Enterobacter cloacae, IFO13535, 17 h; Ent. cloacae IFO 13535; agar dilution, Mueller-Hinton agar; read-out: Minimal Inhibitory Concentration (MIC)
Method: as §1

[4] = system: Ser. marcescens IFO 12648; assay: MIC by agar dilution, Ser. marcescens IFO 12648; settings: Serratia marcescens, IFO12648, 17 h; Ser. marcescens IFO 12648; agar dilution, Mueller-Hinton agar; read-out: Minimal Inhibitory Concentration (MIC)
Method: as §1

Staph. aureus C-5113 = assay: MIC by agar dilution, Staph. aureus C-5113; settings: Staphylococcus aureus, C5113, 17 h, Mueller-Hinton agar, read-out: Minimal Inhibitory Concentration (MIC)
Method: as §1

Staph. aureus Smith = assay: MIC by agar dilution, Staph. aureus Smith; settings: Staphylococcus aureus, 17 h, Mueller-Hinton agar, read-out: Minimal Inhibitory Concentration (MIC)
Method: as §1

Ent. aerogenes IFO 12979 = assay: MIC by agar dilution, Ent. aerogenes IFO 12979; settings: Klebsiella aerogenes, IFO12979, 17 h, Mueller-Hinton agar, read-out: Minimal Inhibitory Concentration (MIC)
Method: as §1

E. coli No. 29 = assay: MIC by agar dilution, E. coli No. 29; settings: Escherichia coli, 17 h; E. coli No. 29; agar dilution, Mueller-Hinton agar; read-out: Minimal Inhibitory Concentration (MIC)
Method: as §1

B. subtilis ATCC 6633 = assay: MIC by agar dilution, B. subtilis ATCC 6633; settings: Bacillus subtilis, ATCC6633, 17 h; B. subtilis ATCC 6633; agar dilution, Mueller-Hinton agar; read-out: Minimal Inhibitory Concentration (MIC)
Method: as §1

Staph. aureus C-57 = assay: MIC by agar dilution, Staph. aureus C-57; settings: Staphylococcus aureus, C57, 17 h, Mueller-Hinton agar, read-out: Minimal Inhibitory Concentration (MIC)
Method: as §1

MIC (M. morganii DY-1) [µg/mL] | MIC (Staph. aureus C-5216) [µg/mL] | MIC (P. vulgaris NCTC 8313) [µg/mL] | MIC [1] [µg/mL] | MIC (E. coli NIHJ JC-2) [µg/mL] | MIC (Staph. aureus ATCC 6538P) [µg/mL] | MIC [2] [µg/mL] | MIC (K. pneumoniae NCTC 9632) [µg/mL] | MIC (Ps. aeruginosa DY-2) [µg/mL] | MIC [3] [µg/mL] | MIC (E. coli DY-1) [µg/mL] | MIC (Prov. stuartii IFO 12930) [µg/mL] | MIC (Ent. cloacae IFO 13535) [µg/mL] | MIC [4] [µg/mL] | MIC (Staph. aureus C-5113) [µg/mL] | MIC (Staph. aureus Smith) [µg/mL] | MIC (Ent. aerogenes IFO 12979) [µg/mL] | MIC (E. coli No. 29) [µg/mL] | MIC (B. subtilis ATCC 6633) [µg/mL] | MIC (Staph. aureus C-57) [µg/mL] | Compound
0.1 (≈ 0.179 µM) | 1.56 (≈ 2.8 µM) | 0.05 (≈ 0.0897 µM) | 0.1 (≈ 0.179 µM) | 0.05 (≈ 0.0897 µM) | 0.2 (≈ 0.359 µM) | 0.78 (≈ 1.4 µM) | 0.05 (≈ 0.0897 µM) | 0.25 (≈ 0.448 µM) | 3.13 (≈ 5.61 µM) | 0.025 (≈ 0.0448 µM) | 0.012 (≈ 0.0215 µM) | 0.1 (≈ 0.179 µM) | 0.05 (≈ 0.0897 µM) | 1.56 (≈ 2.8 µM) | 0.78 (≈ 1.4 µM) | 0.05 (≈ 0.0897 µM) | 0.025 (≈ 0.0448 µM) | 0.39 (≈ 0.699 µM) | 50 (≈ 89.7 µM) | CO/N=C(\C(=O)N[C@@H]1C(=O)N2C(C(=O)[O-])=C(C[n+]3ccn4c(CO)ccc4c3C)CS[C@H]12)c1csc(N)n1 [Ex. 46, 7-β-[(Z)-2-(2-aminothiazol-4-yl)-2-methoxyiminoacetamido]-3-(6-hydroxymethyl-1-methylpyrrolo[1,2-a]pyrazinium-2-yl)methyl-3-cephem-4-carboxylate]
0.025 (≈ 0.0464 µM) | 0.78 (≈ 1.45 µM) | ≤ 0.006 | 0.1 (≈ 0.186 µM) | 0.012 (≈ 0.0223 µM) | 0.39 (≈ 0.724 µM) | 0.39 (≈ 0.724 µM) | 0.025 (≈ 0.0464 µM) | 3.13 (≈ 5.81 µM) | 0.78 (≈ 1.45 µM) | 0.012 (≈ 0.0223 µM) | ≤ 0.006 | 0.05 (≈ 0.0928 µM) | 0.012 (≈ 0.0223 µM) | 0.78 (≈ 1.45 µM) | 1.56 (≈ 2.9 µM) | 0.012 (≈ 0.0223 µM) | 0.012 (≈ 0.0223 µM) | 0.2 (≈ 0.371 µM) | 25 (≈ 46.4 µM) | CON=C(C(=O)NC1C(=O)N2C(C(=O)[O-])=C(C[n+]3ccn4c(C#N)ccc4c3)CSC12)c1csc(N)n1 (stereo not drawn) [Ex. 13, 7-β-[(Z)-2-(2-aminothiazol-4-yl)-2-methoxyiminoacetamido]-3-(6-cyanopyrrolo[1,2-a]pyrazinium-2-yl)methyl-3-cephem-4-carboxylate]
≤ 0.006 | 1.56 (≈ 2.8 µM) | ≤ 0.006 | 0.05 (≈ 0.0897 µM) | ≤ 0.006 | 0.39 (≈ 0.699 µM) | 0.2 (≈ 0.359 µM) | ≤ 0.006 | 6.25 (≈ 11.2 µM) | 0.78 (≈ 1.4 µM) | ≤ 0.006 | ≤ 0.006 | 0.012 (≈ 0.0215 µM) | ≤ 0.006 | 1.56 (≈ 2.8 µM) | 1.56 (≈ 2.8 µM) | ≤ 0.006 | ≤ 0.006 | 0.2 (≈ 0.359 µM) | 50 (≈ 89.7 µM) | CO/N=C(\C(=O)N[C@@H]1C(=O)N2C(C(=O)[O-])=C(C[n+]3cc(C(=O)O)n4cccc4c3)CS[C@H]12)c1csc(N)n1 [Ex. 39, 7-β-[(Z)-2-(2-aminothiazol-4-yl)-2-methoxyiminoacetamido]-3-(4-carboxypyrrolo[1,2-a]pyrazinium-2-yl)methyl-3-cephem-4-carboxylate]
0.05 (≈ 0.093 µM) | 0.78 (≈ 1.45 µM) | 0.012 (≈ 0.0223 µM) | 0.1 (≈ 0.186 µM) | 0.39 (≈ 0.725 µM) | 0.2 (≈ 0.372 µM) | 0.78 (≈ 1.45 µM) | 0.05 (≈ 0.093 µM) | 6.25 (≈ 11.6 µM) | 1.56 (≈ 2.9 µM) | ≤ 0.006 | 0.05 (≈ 0.093 µM) | 0.78 (≈ 1.45 µM) | 0.1 (≈ 0.186 µM) | 0.39 (≈ 0.725 µM) | 0.39 (≈ 0.725 µM) | 0.012 (≈ 0.0223 µM) | 0.012 (≈ 0.0223 µM) | 0.78 (≈ 1.45 µM) | 25 (≈ 46.5 µM) | C#CCON=C(C(=O)NC1C(=O)N2C(C(=O)[O-])=C(C[n+]3ccn4cccc4c3)CSC12)c1csc(N)n1 (stereo not drawn) [Ex. 4, 7-β-[(Z)-2-(2-aminothiazol-4-yl)-2-(propyn-1-oxyimino)acetamido]-3-(pyrrolo[1,2-a]pyrazinium-2-yl)methyl-3-cephem-4-carboxylate]
